Measured values: publication PMC9324262, “Selective CDK9 Inhibition by Natural Compound Toyocamycin in Cancer Cells” (Cancers, 2022)

What was measured:
YB5 cells [1] = assay: GFP reactivation in YB5 cell-based system (flow cytometry); set-up: species or system human; conditions: for GFP expression in YB5 cells, adenosine analogues: Figure S2; for GFP+ cells: alone, screen control
Description: YB5 cells are derived from SW48 cells (human colon cancer cell line), and contain a single insertion of a DNA hypermethylated cytomegalovirus (CMV) promoter driving the green fluorescent protein (GFP) gene, as previously described. YB5 cells are cultured in L-15 medium supplemented with 10% fetal bovine serum and grown in log-phase in 1% CO2 atmosphere. YB5 cells were authenticated by DNA fingerprinting prior to drug screening and validation experiments. GFP expression in YB5 cells is silenced in >99.9% of the cells due to the CMV promoter DNA hypermethylation and repressive chromatin marks around the transcriptional start site. The human HCT116 colon cancer-derived GFP-reporter system, comprising a GFP gene under the control of an endogenously hypermethylated SFRP1 gene promoter, was kindly provided by Dr. Stephen Baylin (Johns Hopkins University). These cells are cultured in McCoy’s 5A medium supplemented with 10% fetal bovine serum and grown in log-phase in 5% CO2 atmosphere at 37 °C. The 451-Lu-BR melanoma cells were a kind gift from Dr. Raza Zaidi (Fels Institute for Cancer Research and Molecular Biology, Temple University School of Medicine, Philadelphia). These cells are derived from parental 451-LU cells that have acquired resistance to BRAF inhibitors. The 451-Lu-BR cells were cultured at 37 °C in Dulbecco’s Modified Eagle Medium (DMEM) supplemented with 10% fetal bovine serum, L-alanyl-L-glutamine (2 mM), and gentamycin (50 µg/mL) in 5% CO2 at 37 °C. The natural drug library (natural product set II) containing 120 compounds was obtained from the National Cancer Institute Developmental Therapeutics Program. Natural compounds were dissolved in DMSO (10 mM) in 96-well plates that were kept at −80°C until use. Toyocamycin, analogues of toyocamycin (sangivamycin, tubercidin, 3-deaza-adenosine, DZNep), CDK inhibitors, and epigenetic drugs (decitabine, SAHA, trichostatin A, depsipeptide) were purchased from Sigma-Aldrich (St. Louis, MO, USA,) for validation studies, dissolved in DMSO, and kept at −80 °C until use.
YB5 cells were seeded at 30,000 cell/mL in 96-well plates (6000 cells/well) and treated 3 days after seeding. Cells were exposed to 120 natural compounds in 5 different experimental conditions: (1) 72 h exposure at 10 µM followed by 24 h recovery period prior to analysis; (2) 24 h treatment at 50 µM prior to analysis; (3) 72 h exposure at 10 µM of the compound library followed by 24 h treatment with HDAC inhibitor trichostatin A (200 nM) prior to analysis; (4) 72 h exposure at 10 µM in simultaneous combination with decitabine (50 nM) followed by 24 h recovery period prior to analysis; and (5) 72 h treatment with decitabine (50 nM) followed by 24 h exposure with the natural compound library (50 µM) prior to analysis. The scheme of different dose schedules is shown Figure S1A. During screening, drugs and cell culture media were replaced every day. To ensure the quality and the reproducibility of the screen, each 96-well plate was designed to include 80 natural compounds, 4 untreated wells, 4 wells treated with decitabine (50 nM, 72 h), 4 wells treated with trichostatin A (200 nM, 24 h), and their combination with decitabine (50 nM, 72 h) followed by trichostatin A treatment (200 nM, 24 h) prior to flow cytometry analysis. The percentage of GFP-expressing cells in control wells (untreated or treated with known epigenetic drugs) was measured and was reproducible between different plates.
After treatment, YB5 cells were trypsinized for 15 min and resuspended in L-15 media containing propidium iodide (PI) to stain dead cells. GFP expression and PI staining were quantified by a BD LSR II flow cytometer (BD Biosciences, San Jose, CA, USA). A maximum of 10,000 cells was analyzed per well. Validations were performed using a Millipore Guava flow cytometer (EMD, Millipore, Burlington, MA, USA). […]

CDK9 = conditions: cited from earlier work
RNA-Pol II Ser2-P = assay: Western blot, RNA Pol II and phospho-Pol II Ser2; assay type: cell-based, human; conditions: HCT116, 1–10 µM, 16 h
Description: YB5 cells were harvested in 50 mM Tris-HCl, 1% NP-40, 1 mM EDTA, 1 mM EGTA, 0.25% sodium deoxycholate, 150 mM NaCl, 50 mM sodium fluoride, and 1X Complete protease cocktail (Roche, Basel, Switzerland) with 1 mM PMSF. The total protein concentration was measured in all samples by standard BCA protocol (Pierce-23225, Thermo Scientific, Waltham, MA, USA) to ensure that an equal amount of protein was added to each sample. Protein extracts were run on 12% SDS–PAGE precast gels (Bio-Rad, Hercules, CA, USA, 345-0118). Proteins were transferred to polyvinylidene difluoride (PVDF) membranes in 10 mmol/L CAPS (pH-11) containing 10% methanol and detected by using specific primary antibodies, horseradish peroxidase–conjugated secondary antibodies (GE Healthcare, Chicago, IL, USA), and an enhanced chemiluminescence reagent (Pierce). PVDF membranes were incubated with specific primary antibodies (actin—A5441, Sigma, St. Louis, MO, USA; HA-tagged—H9608, Sigma; FLAG-tagged—F3165, Sigma). FLAG- and HA-tagged CDK9 plasmids were a generous gift from Dr Bassel E. Sawaya (Temple University). For CDK9 target modulation, HCT116 colon cancer cells were treated with toyocamycin or known CDK9 inhibitor BAY1251152 (Selleckchem, Houston, TX, USA). Whole cell extracts were obtained by lysing cells with 25 mM Tris (pH 7.3) and 1% sodium dodecyl sulfate (SDS). After sonication, total protein concentrations were determined using Bradford protein assay. The following primary antibodies were used to investigate the effect of CDK9 inhibition: Pol II against the N-term region (sc-55492, Santa Cruz, Dallas, TX, USA), Pol II against the C-term region (39097, Active motif, Carlsbad, CA, USA), Pol II phospho CTD ser2 (14-9802-82, Invitrogen, Waltham, MA, USA), Rb (ab181616, Abcam, Cambridge, UK), Rb phospho T826 (ab133446, Abcam, Cambridge, UK), CDK9 (ab39098, Abcam, Cambridge, UK), and actin (ab1801, Abcam, Cambridge, UK). Images were acquired with an Image Quant LAS4000 device from GE Healthcare Life Sciences. Band intensity quantifications were calculated using ImageJ software, edition 1.53 [27].

YB5 cells [2] = assay: anchorage-dependent clonogenic assay; assay type: cell-based, human; conditions: 10–50 nM, 72 h treatment, 2 weeks drug-free
Description: Two hundred YB5 cells were seeded per well in 6-well plates. On the following day, YB5 cells were treated with toyocamycin for 24 h or 72 h. Decitabine (10–50 nM for 72 h) was used as a positive control for the loss of clonogenic potential. Drugs and media were replaced each day. After treatment, media was removed. YB5 cells were grown in drug-free media for 2 weeks to allow visible colony formation prior to colony staining (0.5% methylene blue in 50% methanol). YB5 colonies were counted manually.

| Compound | GFP expression in YB5 cells, adenosine analogues (YB5 cells [1]; 24 h) | CDK9 inhibition IC50 values (CDK9) | also measured |
| --- | --- | --- | --- |
| Nc1nccc2c1ncn2[C@@H]1O[C@H](CO)[C@@H](O)[C@H]1O [3-deaza-adenosine] | only sangivamycin induced GFP expression |  |  |
| CC(=O)N[C@@H]1CCC[C@H](C(=O)Nc2cc(-c3cnn4c3CC(C)(C)C4)c(Cl)cn2)C1 [AZD-4573] |  | low nanomolar range |  |
| COc1cc(F)ccc1-c1cc(Nc2cc(CS(C)(=N)=O)ccn2)ncc1F (stereo not shown) [BAY1251152] |  |  | RNA Pol II band intensity, Pol II C-terminal antibody (RNA-Pol II Ser2-P): reduced the RNA Pol II band intensity; RNA-Pol II ser 2 phosphorylation (RNA-Pol II Ser2-P): significantly reduced |
| Nc1n[nH]c(N)c1N=Nc1ccc(O)cc1 [CAN-508] |  | low nanomolar range |  |
| Nc1nccc2c1ncn2C1C=C(CO)C(O)C1O (stereo not shown) [DZNep] | only sangivamycin induced GFP expression |  |  |
| COc1ccccc1-c1cc(Nc2cccc(CS(N)(=O)=O)c2)ncn1 [LDC000067] |  | low nanomolar range |  |
| Nc1nc(N[C@H]2C[C@@H]3CC[C@H]2C3)sc1C(=O)c1ccccc1[N+](=O)[O-] [MC180295] |  |  | GFP fluorescence, % of YB5 cells (YB5 cells [1]; 500 nM, 48 h): about 10% |
| CC(C)(C)c1cnc(CSc2cnc(NC(=O)C3CCNCC3)s2)o1 [SNS-032] |  | low nanomolar range |  |
| Nc1ncn([C@H]2C[C@H](O)[C@@H](CO)O2)c(=O)n1 [decitabine, 5-aza-2′-deoxycytidine] |  |  | GFP+ cells (YB5 cells [1]; 50 nM, 72 h): about 15%; colony formation (YB5 cells [2]): still produced colonies |
| NC(=O)c1cn([C@@H]2O[C@H](CO)[C@@H](O)[C@H]2O)c2ncnc(N)c12 [sangivamycin] | induced GFP expression in YB5 cells, but to a lesser extent than toyocamycin |  | GFP expression in YB5 cells, adenosine analogues (YB5 cells [1]; 24 h, listed as Sangivamycin): weak GFP activation; CDK9 inhibition (CDK9): direct CDK9 inhibition |
| CC(/C=C/C(=O)NO)=C\[C@@H](C)C(=O)c1ccc(N(C)C)cc1 [trichostatin A] |  |  | GFP+ cells (YB5 cells [1]; 200 nM, 24 h): about 6% |
| Nc1ncnc2c1ccn2[C@@H]1O[C@H](CO)[C@@H](O)[C@H]1O [tubercidin] | only sangivamycin induced GFP expression |  |  |
